The results in this text go back to ChEMBL document CHEMBL1201862, “PubChem BioAssay data set” (2004).

Test in all cases: DTP human tumour cell line panel, 48 h
Test [1] concerns BT-549.
Test [2] concerns LOX IMVI.
For test [3], the system named is U-251.
In test [4] the test system is SK-MEL-5.
Test [5] deals with A498.
Test [6] deals with COLO 205.
Test [7] deals with SNB-19.
In test [8] the test system is NCI-H23.
For test [9], the system named is MDA-N.
The test system of test [10] is SR.
In test [11] the test system is SK-MEL-2.
Test [12] has as its system OVCAR-5.
Test [13] relates to HL-60.
Test [14] relates to SN12C.
In test [15] the test system is SF-539.
The test system of test [16] is MDA-MB-435.
Test [17] relates to SNB-75.
Test [18] relates to MCF7.
Test [19] relates to HCC 2998.

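These data come from cells grown in 96-well plates and exposed to compound for 48 hours at five concentrations. GI50 = concentration required for 50% inhibition of growth.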 Active and inactive are the calls of the source. Rule as the data show it: active = GI50 up to about 1.1 µM and inactive = higher.

For `Cc1ccc(-c2sc(-c3ccc(C)cc3)c3c2C2CCC3C2)cc1`, the GI50 in [1], in test [2], in [3], in test [4], in test [5] and in test [6] was > 50 µM (inactive) in each case. Also, the GI50 in [7], in [8], in test [9], in test [10], in test [11] and in test [12] was > 50 µM (inactive) each time. Moreover, the GI50 in [13], in test [14], in test [15] and in test [16] was > 50 µM (inactive) throughout.
For the compound `Cc1cccc(/N=C/C=C(\Cl)c2ccc3ccccc3c2)c1`, the GI50 in test [1] is 19.1 µM (inactive); in test [2] it was 2.79 µM (inactive); in [3], 14.8 µM (inactive); in test [17], > 39.3 µM (inactive); in [4], 17.7 µM (inactive); in [5], > 100 µM (inactive). Further, the GI50 in test [6] was 17.9 µM (inactive); in [18], 16.4 µM (inactive); in test [7], 13.9 µM (inactive); in [8], 13.9 µM (inactive); in test [10], 3.88 µM (inactive); in test [11], 22.9 µM (inactive). The GI50 in test [12] is 27.8 µM (inactive); in test [13], 11.4 µM (inactive); in test [14], 16.6 µM (inactive); in [15], 17.8 µM (inactive); in test [16] it was 18.1 µM (inactive).
`CC1=C2CN(C(=O)OCC(C)C)CCC2C2=C(C(=O)c3ccccc3C2=O)C1C` (centres undefined): the GI50 in [19], in test [2], in [17], in test [4], in [6] and in [18] was > 10 µM (inactive) in each case. For the same compound, the GI50 was 6.53 µM (inactive) in test [8]; > 10 µM (inactive) in [9]; > 10 µM (inactive) in [10]; > 10 µM (inactive) in [13]; > 10 µM (inactive) in test [14]; > 10 µM (inactive) in [16].
Take `S=c1nc(N/N=C/c2cccs2)c2cn[nH]c2[nH]1`: the GI50 in [1] was > 100 µM (inactive); in [19], 10.1 µM (inactive); in test [2] it was 25.5 µM (inactive); in [3], 25.1 µM (inactive); in test [17], 97.7 µM (inactive); in [4] it was 31.1 µM (inactive). The GI50 in test [5] was 4.02 µM (inactive); in test [6] it was 6.87 µM (inactive); in test [18], 4.23 µM (inactive); in test [7], 58.2 µM (inactive); in test [8], 21.2 µM (inactive); in test [10] it was 11.8 µM (inactive). The GI50 in [11] is 58.2 µM (inactive); in test [12], 17.2 µM (inactive); in test [13] it was 76.4 µM (inactive); in test [14], 32.3 µM (inactive); in test [15], 50.2 µM (inactive); in test [16] it was 16.3 µM (inactive).
On to `COc1ccc(C=C2C(=O)NC(=S)NC2=O)c2ccccc12`, for which the GI50 in test [19] was 32.6 µM (inactive); in test [2], 34.4 µM (inactive); in test [3], 27.6 µM (inactive); in test [4], 29.1 µM (inactive); in test [5] it was 0.224 µM (active); in test [18], 22.5 µM (inactive). The GI50 was 32.8 µM (inactive) in [8]; 18.1 µM (inactive) in test [9]; 42.7 µM (inactive) in test [10]; 21.2 µM (inactive) in test [11]; 5.13 µM (inactive) in test [12]; 24.3 µM (inactive) in [13]. In addition, the GI50 was 22 µM (inactive) in test [15] and 27 µM (inactive) in test [16].
`CCOC(=O)/C=C/CC(C)(C)CCOC(C)=O`: the GI50 in test [19], in test [2], in test [3], in test [17], in test [4] and in test [6] was > 10 µM (inactive) throughout. The GI50 in test [18], in [7], in [8], in [9], in [10] and in [11] was > 10 µM (inactive) in each case. Further, the GI50 in test [12], in [13], in test [14], in [15] and in test [16] was > 10 µM (inactive) throughout.
As for `O=c1[nH]c2cc([N+](=O)[O-])c(Nc3c4ccccc4nc4ccccc34)c([N+](=O)[O-])c2[nH]1`, the GI50 in test [1] is 6.53 µM (inactive); in test [19], 1.73 µM (inactive); in test [2] it was 2.37 µM (inactive); in test [3] it was 3.58 µM (inactive); in [17], 3.68 µM (inactive); in test [4] it was 2.45 µM (inactive). In addition, the GI50 was 2.08 µM (inactive) in test [5]; 2.1 µM (inactive) in test [6]; 2.59 µM (inactive) in test [18]; 5.02 µM (inactive) in [7]; 3.49 µM (inactive) in test [8]; 1.74 µM (inactive) in test [10]. Also, the GI50 is 2.72 µM (inactive) in test [11]; 2.4 µM (inactive) in test [12]; 3.1 µM (inactive) in [13]; 2.17 µM (inactive) in [14]; 3.28 µM (inactive) in test [15]; 2.77 µM (inactive) in test [16].
Turning to `COCC1OC([P+](c2ccccc2)(c2ccccc2)c2ccccc2)CC(OC)C1OC` (centres undefined), the GI50 was 35.6 µM (inactive) in [3]; 18.2 µM (inactive) in test [4]; 37.2 µM (inactive) in test [5]; 38 µM (inactive) in test [18]; 34.7 µM (inactive) in test [7]; 48.6 µM (inactive) in test [8]. Further, the GI50 was 37.2 µM (inactive) in test [9]; 17.4 µM (inactive) in [10]; 24.1 µM (inactive) in test [11]; 51.5 µM (inactive) in test [12]; 29.1 µM (inactive) in [14]; 29.6 µM (inactive) in test [16].
Take `O=[N+]([O-])c1cccc2nc3ccccc3c(NCCCCCNc3c4ccccc4nc4cccc([N+](=O)[O-])c34)c12`: the GI50 in test [1] was 0.159 µM (active); in test [19] it was 0.0243 µM (active); in test [2], 0.168 µM (active); in test [3] it was 0.0368 µM (active); in [17] it was 0.197 µM (active); in [4], 0.0895 µM (active). Further, the GI50 was 0.111 µM (active) in test [5]; 0.0246 µM (active) in test [6]; 0.0161 µM (active) in [18]; 0.116 µM (active) in [7]; 0.0412 µM (active) in [8]; 0.0536 µM (active) in test [9]. Moreover, the GI50 in test [10] was 0.00271 µM (active); in test [11] it was 0.159 µM (active); in [12], 0.209 µM (active); in test [13] it was 0.00745 µM (active); in test [14], 0.0151 µM (active); in test [15], 0.0304 µM (active).
Take `COC(=O)C1(C(=O)OC)CC2=C(S(=O)(=O)c3ccccc3)C[C@H](S(=O)(=O)c3ccccc3)[C@H]2C1`: the GI50 in test [1] is > 100 µM (inactive); in test [19], 15.7 µM (inactive); in test [2] it was > 100 µM (inactive); in test [3], > 100 µM (inactive); in test [17], 37.8 µM (inactive); in [4], 82.8 µM (inactive). For the same compound, the GI50 is > 100 µM (inactive) in test [5]; 62.4 µM (inactive) in test [6]; 71.6 µM (inactive) in test [7]; > 100 µM (inactive) in test [8]; 39.4 µM (inactive) in test [9]; 27.2 µM (inactive) in test [11]. Further, the GI50 in [12] was > 100 µM (inactive); in [14], > 100 µM (inactive); in [16], 76.4 µM (inactive).
For the compound `CC1CC(N)=Nc2ccccc2N1Cc1ccccc1` (centres undefined), the GI50 in [1] was 13.3 µM (inactive); in test [3], 15.2 µM (inactive); in test [17] it was 6.89 µM (inactive); in test [4], 14.7 µM (inactive); in test [5], 11.2 µM (inactive); in test [6], 14.9 µM (inactive). The GI50 was 15.9 µM (inactive) in [7]; 16.3 µM (inactive) in test [8]; 18 µM (inactive) in test [9]; 14.3 µM (inactive) in [11]; 31.8 µM (inactive) in [12]; 3.96 µM (inactive) in [13]. For the same compound, the GI50 in [14] was 16.6 µM (inactive); in [16], 13.9 µM (inactive).
Regarding `COc1ccc(O)c(/C=N\Nc2ccccc2)c1`, the GI50 in test [1] is 6.32 µM (inactive); in test [19] it was < 0.01 µM (active); in test [2], 2.44 µM (inactive); in [3], 26.2 µM (inactive); in test [17], 49.9 µM (inactive); in test [4], 22.5 µM (inactive). Besides, the GI50 is 15.5 µM (inactive) in [5]; 10.6 µM (inactive) in test [6]; 14.8 µM (inactive) in test [18]; 30.8 µM (inactive) in [7]; 10.3 µM (inactive) in test [8]; 4.8 µM (inactive) in test [11]. For the same compound, the GI50 in test [12] is 19.5 µM (inactive); in test [13] it was 3.17 µM (inactive); in [14] it was 29.6 µM (inactive); in test [15] it was 12.2 µM (inactive); in test [16], 3.67 µM (inactive).
Take `O=C(Nc1ccc(Cl)cc1)c1cc2c(cc1Cl)Sc1nccn1S2(=O)=O`: the GI50 in test [19] was 76.7 µM (inactive); in test [2], > 100 µM (inactive); in [3] it was 10.7 µM (inactive); in [17] it was 3.4 µM (inactive); in [4] it was 44.7 µM (inactive); in test [5] it was 29.6 µM (inactive). Further, the GI50 in test [6] was > 100 µM (inactive); in test [18] it was 69.3 µM (inactive); in test [7] it was 44.4 µM (inactive); in [9] it was 28.8 µM (inactive); in [10], > 100 µM (inactive); in [11] it was > 100 µM (inactive). Moreover, the GI50 is > 100 µM (inactive) in test [12], 49.7 µM (inactive) in test [14], 50.2 µM (inactive) in [15] and 4.42 µM (inactive) in test [16].

The term GI50 denotes the concentration that inhibits growth by half.
